# Assay results published in patent US10899879B2, “Biodegradable trehalose glycopolymers” (THE REGENTS OF THE UNIVERSITY OF CALIFORNIA, priority 2014, dated 2021).
# Columns and labels:
# β-galactosidase (β-Gal) = conditions: three 12-hour desiccation cycles; 25 equivalents of trehalose; FIG. 12b
# Experimental: The stabilization of β-Gal against lyophilization stress was also measured. […] The activity of β-Gal was determined by reaction with ortho-nitrophenol galactose (ONPG). When incubated with β-Gal, release of the yellow-colored o-nitrophenol from ONPG can be monitored at 405 nm.
# The activity of β-Gal was determined by reaction with ortho-nitrophenol galactose (ONPG). When incubated with β-Gal, release of the yellow-colored o-nitrophenol from ONPG can be monitored at 405 nm.
# Lyophilization studies with β-galactosidase were carried out as previously described; β-Gal was subjected to three 12 hour lyophliization cycles before dilution. Activity was assayed by monitoring the hydrolysis of o-nitrophenol galactose (ONPG) at 405 nm.
# lysozyme = lysozyme (Gallus gallus, UniProt P00698); test: Stabilization of lysozyme against heat stress with trehalose-CL as excipient; assay type: biochemical; conditions: lysozyme 0.02 mg/mL heated to 90° C. for 20 minutes; additive 5 to 25 wt eq.; FIG. 12a
# Experimental: Stabilization of model proteins using trehalose-caprolactone as excipient. The ability of these biodegradable trehalose polymers to stabilize proteins was confirmed through heat and lyophilization stress assays. […] Therefore, these proteins were also selected to test the biodegradable trehalose polymers. First, lysozyme was stressed by heating to 90° C. for 20 minutes.
# Trehalose-CL and a styrenyl ether trehalose (SET) polymer previously described were also directly compared in their stabilization of lysozyme (FIG. 13) (Lee et al., 2013). […] Thus, the degradable trehalose glycopolymer was similar in stabilization ability to the non-degradable version.
# lysozyme, sequence (P00698 19-147): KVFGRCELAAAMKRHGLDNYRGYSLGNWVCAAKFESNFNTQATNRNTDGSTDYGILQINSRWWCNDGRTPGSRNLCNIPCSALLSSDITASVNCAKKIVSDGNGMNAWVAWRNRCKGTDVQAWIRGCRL
smiles,measurement,setting,value
OC[C@H]1O[C@H](O[C@H]2O[C@H](CO)[C@@H](O)[C@H](O)[C@H]2O)[C@H](O)[C@@H](O)[C@@H]1O [trehalose],"β-Gal native activity maintained after lyophilization stress, 25 equivalents of additive",β-galactosidase (β-Gal),up to 67%
same,lysozyme native activity retained after heat stress,lysozyme,not significantly different from the negative control
